Test results taken from ChEMBL document CHEMBL1156602, “Synthesis and antiviral properties of some polyphenols related to Salvia genus” (Bioorg Med Chem Lett, 2008).

Key:
[1] = Cytotoxicity against human MT2 cells after 48 hrs; type: cell-based; settings: read-out: LD50
[2] = system: Human immunodeficiency virus 1; experiment: Antiviral activity against HIV1 LAI in MT2 cells assessed as inhibition of virus-induced cytopathic effect; type: functional; settings: Human immunodeficiency virus 1, LAI, read-out: ED50 (the source's name)
[3] = biological target: T1, Human immunodeficiency virus type 1 integrase (Human immunodeficiency virus 1, UniProt Q7ZJM1); experiment: Inhibition of HIV1 integrase catalyzed reactions
T1 sequence (Q7ZJM1 whole entry): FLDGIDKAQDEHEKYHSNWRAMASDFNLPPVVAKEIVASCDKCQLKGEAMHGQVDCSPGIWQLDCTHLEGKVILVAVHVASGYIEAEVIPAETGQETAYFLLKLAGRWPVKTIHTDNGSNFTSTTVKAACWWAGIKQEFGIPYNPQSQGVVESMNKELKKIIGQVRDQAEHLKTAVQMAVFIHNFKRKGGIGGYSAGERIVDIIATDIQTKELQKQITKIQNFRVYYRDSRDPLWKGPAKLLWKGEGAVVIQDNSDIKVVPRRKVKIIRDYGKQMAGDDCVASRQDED

[4] = system: Human immunodeficiency virus 1; experiment: Antiviral activity against HIV1 in MT4 cells assessed as inhibition of virus-induced cytopathic effect by MTT assay; type: functional, organism-based; settings: Human immunodeficiency virus 1, MT4
[5] = biological target: T1, Human immunodeficiency virus type 1 integrase; experiment: Inhibition of HIV1 integrase by overall integration assay
[6] = biological target: T1, Human immunodeficiency virus type 1 integrase; experiment: Inhibition of HIV1 integrase strand transfer activity
[7] = Cytotoxicity against human MT4 cells by MTT assay; type: cell-based
[8] = biological target: T1, Human immunodeficiency virus type 1 integrase; experiment: Inhibition of HIV1 integrase in presence of Mn2+

Work on `O=C(/C=C/c1ccc(O)c(O)c1)O[C@@H]1C[C@](O)(C(=O)O)C[C@@H](OC(=O)/C=C/c2ccc(O)c(O)c2)[C@H]1O` yielded a CC50 at 48 h [1] of 300 µM, an EC50 [2] of 1.9 µM and an IC50 [3] of 0.64 µM.

With `O=C(O)/C=C/c1ccc(O)c2c1C1C(=O)c3cc(O)c(O)cc3C1O2` (racemic) the EC50 [4] was over 23.3 µM, the IC50 [5] was 0.15 µM and the IC50 [6] was 0.3 µM. It also gave a CC50 [7] of 23.3 µM.

`O=C(O)/C=C/c1ccc(O)c(O)c1CC(=O)O` showed an EC50 [4] of over 44 µM, an IC50 [5] of 1.34 µM and an IC50 [6] of 1.09 µM. The CC50 [7] was 44 µM.

For `O=C(/C=C/c1ccc(O)c(O)c1)O[C@@H](C(=O)O)[C@@H](OC(=O)/C=C/c1ccc(O)c(O)c1)C(=O)O` [CICHORIC ACID], the CC50 at 48 h [1] was 700 µM.

With `O=C(O)/C=C/c1ccc(O)c(O)c1` [CAFFEIC ACID] the IC50 [5] was 2.8 µM, the IC50 [6] was 24 µM and the IC50 [8] was 2.8 µM.

`O=C(O)/C=C/c1ccc(O)c(O)c1/C(=C/c1ccc(O)c(O)c1)C(=O)O` showed an EC50 [4] of over 4.5 µM, an IC50 [5] of 0.56 µM and an IC50 [6] of 0.73 µM. The CC50 [7] was 4.5 µM.
